Reference: patent publication US10385067B2, “Sodium (2R,5S,13aR)-7,9-dioxo-10-((2,4,6-trifluorobenzyl)carbamoyl)-2,3,4,5,7,9,13,13a-octahydro-2,5-methanopyrido[1′,2′:4,5]pyrazino[2,1-b][1,3]oxazepin-8-olate” (Gilead Sciences, Inc., priority 2014, dated 2019)

Columns and labels:
[1] = Stability on storage under accelerated conditions; format: physicochemical; settings: after four weeks of storage under accelerated conditions
Description: The stability of sodium (2R,5S,13aR)-7,9-dioxo-10-((2,4,6-trifluorobenzyl)carbamoyl)-2,3,4,5,7,9,13,13a-octahydro-2,5-methanopyrido[1′,2′:4,5]pyrazino[2,1-b][1,3]oxazepin-8-olate Form I was tested. […] In Table 5, AN refers to area normalization and is the relative peak area of the active with respect to other impurities and components contained in the sample. LS refers to labile strength and is the amount of active present relative to the theoretical amount.

HIV = settings: as discussed in co-pending U.S. Ser. No. 14/133,855 and PCT US2013/076367; cited from earlier work

| stability [1] | Compound | anti-viral activity (HIV) |
| --- | --- | --- |
| stable | O=C(NCc1c(F)cc(F)cc1F)c1cn2c(c([O-])c1=O)C(=O)N1[C@H]3CC[C@H](C3)O[C@@H]1C2.[Na+] [Formula II Form I, sodium (2R,5S,13aR)-7,9-dioxo-10-((2,4,6-trifluorobenzyl)carbamoyl)-2,3,4,5,7,9,13,13a-octahydro-2,5-methanopyrido[1′,2′:4,5]pyrazino[2,1-b][1,3]oxazepin-8-olate] |  |
|  | O=C(NCc1c(F)cc(F)cc1F)c1cn2c(c(O)c1=O)C(=O)N1[C@H]3CC[C@H](C3)O[C@@H]1C2 [Formula I, (2R,5S,13aR)-8-hydroxy-7,9-dioxo-N-(2,4,6-trifluorobenzyl)-2,3,4,5,7,9,13,13a-octahydro-2,5-methanopyrido[1′,2′:4,5]pyrazino[2,1-b][1,3]oxazepine-10-carboxamide] | demonstrates anti-viral activity |
